In assay [1] the test system is Kluyveromyces marxianus. Kind of assay: Antifungal activity against Candida kefyr after 24 hrs by serial dilution method. Type of assay: functional.
Assay [2] relates to Candida albicans. Kind of assay: Antifungal activity against Candida albicans after 24 hrs by serial dilution method. Type of assay: functional.
Assay [3] has as its system Aspergillus fumigatus. As to the kind of experiment: Antifungal activity against Aspergillus fumigatus after 7 days by serial dilution method. The format is functional. To be noted: 168 h.
The test system of assay [4] is Cryptococcus neoformans. Kind of assay: Antifungal activity against Cryptococcus neoformans after 72 hrs by serial dilution method. Type of assay: functional.
In assay [5] the test system is Nannizzia gypsea. As to the kind of experiment: Antifungal activity against Microsporum gypseum by serial dilution method. The format is functional.
In assay [6] the test system is Candida parapsilosis. Kind of assay: Antifungal activity against Candida parapsilosis after 24 hrs by serial dilution method. The format is functional. The settings on record: Lodderomyces parapsilosis.
Assay [7] concerns Trichophyton rubrum. Kind of assay: Antifungal activity against Trichophyton rubrum by serial dilution method. Type of assay: functional.
The subject of assay [8] is Candida tropicalis. Kind of assay: Antifungal activity against Candida tropicalis after 24 hrs by serial dilution method. The format is functional.
A short description of assay [9]: Inhibition of Saccharomyces cerevisiae NMT.

Values after ≈ are worked out from the molar mass of the structure shown. Some results are limits rather than exact numbers.

Take `Cc1ccc2c(c1)c1c(n2CCCNc2ccccc2)CCCC1`: the MIC80 in [1] is 16 µg/mL (≈ 50.2 µM); in assay [2], 64 µg/mL (≈ 201 µM); in assay [3], 16 µg/mL (≈ 50.2 µM); in assay [4], 16 µg/mL (≈ 50.2 µM); in assay [5], 0.0625 µg/mL (≈ 0.196 µM); in [6], 16 µg/mL (≈ 50.2 µM). Moreover, the MIC80 in assay [7] and in assay [8] was 16 µg/mL (≈ 50.2 µM) throughout.

Regarding `Cc1ccc(CNCCCn2c3c(c4cc(C)ccc42)CCCC3)cc1`, the MIC80 in assay [1] was found to be 16 µg/mL (≈ 46.2 µM); in assay [2], 32 µg/mL (≈ 92.3 µM); in [3] it was 32 µg/mL (≈ 92.3 µM); in assay [4] it was 8 µg/mL (≈ 23.1 µM); in assay [6], 32 µg/mL (≈ 92.3 µM); in [7] it was 8 µg/mL (≈ 23.1 µM). Also, the MIC80 in assay [8] was determined as 16 µg/mL (≈ 46.2 µM).

As for `Cc1ccc2c(c1)c1c(n2CCCNCc2ccccc2F)CCCC1`, the MIC80 in [1] was 16 µg/mL (≈ 45.7 µM); in assay [2] it was > 64 µg/mL; in [3], 16 µg/mL (≈ 45.7 µM); in assay [4] it was > 64 µg/mL; in assay [6] it was > 64 µg/mL; in [7], 64 µg/mL (≈ 183 µM). The same molecule registered an MIC80 in assay [8] of 32 µg/mL (≈ 91.3 µM).

As for `COc1ccc(CNCCCn2c3c(c4cc(C)ccc42)CCCC3)cc1`, the MIC80 is 16 µg/mL (≈ 44.1 µM) in assay [1]; 32 µg/mL (≈ 88.3 µM) in assay [2]; 16 µg/mL (≈ 44.1 µM) in [3]; 16 µg/mL (≈ 44.1 µM) in assay [4]; 16 µg/mL (≈ 44.1 µM) in assay [6]; 8 µg/mL (≈ 22.1 µM) in assay [7]. For the same molecule, the MIC80 in [8] was 8 µg/mL (≈ 22.1 µM).

As to `Cc1ccc2c(c1)c1c(n2CCCNCc2ccc(Cl)cc2Cl)CCCC1`, the MIC80 in [1], in [2], in assay [3], in assay [4], in assay [6] and in assay [7] was > 64 µg/mL in each case. In [8], the MIC80 was > 64 µg/mL.

As to `Cc1ccc2c(c1)c1c(n2C[C@@H](O)CNC2CCCCC2)CCCC1`, the MIC80 in [1] was 64 µg/mL (≈ 188 µM); in assay [2], 64 µg/mL (≈ 188 µM); in assay [3], 64 µg/mL (≈ 188 µM); in assay [4], 16 µg/mL (≈ 47 µM); in [5], 16 µg/mL (≈ 47 µM); in assay [6], 16 µg/mL (≈ 47 µM). The MIC80 in assay [7] was 16 µg/mL (≈ 47 µM); in assay [8] it was 64 µg/mL (≈ 188 µM). In assay [9], this molecule had an IC50 of 24 nM.

On to `Cc1c(C(=O)c2ccccn2)oc2cccc(OCCCNCc3cccnc3)c12`, for which the MIC80 in assay [1] was 4 µg/mL (≈ 9.96 µM); in assay [2], 4 µg/mL (≈ 9.96 µM); in assay [3], > 64 µg/mL; in assay [4], > 64 µg/mL; in [5], > 64 µg/mL; in assay [6], 4 µg/mL (≈ 9.96 µM). In addition, the MIC80 in assay [7] amounted to 64 µg/mL (≈ 159 µM); in assay [8] it was 8 µg/mL (≈ 19.9 µM).

For `Cc1ccc2c(c1)c1c(n2CC(O)CNc2ccccc2)CCCC1` (stereo not drawn), the MIC80 was > 64 µg/mL in assay [2], > 64 µg/mL in assay [3], > 64 µg/mL in assay [4] and 1 µg/mL (≈ 2.99 µM) in assay [5].

Take `Cc1ccc2c(c1)c1c(n2CCCNCc2ccc(Cl)cc2)CCCC1`: the MIC80 in [1] is 16 µg/mL (≈ 43.6 µM); in assay [2], > 64 µg/mL; in assay [3] it was 16 µg/mL (≈ 43.6 µM); in assay [4], > 64 µg/mL; in assay [6] it was 32 µg/mL (≈ 87.2 µM); in assay [7], > 64 µg/mL. In addition, the MIC80 in assay [8] stood at 64 µg/mL (≈ 174 µM).

On to `Cc1ccc2c(c1)c1c(n2CCCNCc2cccc(Cl)c2)CCCC1`, for which the MIC80 in assay [1] was 64 µg/mL (≈ 174 µM); in [2], > 64 µg/mL; in assay [3] it was > 64 µg/mL; in assay [4] it was 32 µg/mL (≈ 87.2 µM); in assay [6], > 64 µg/mL; in assay [7], > 64 µg/mL. Besides, the MIC80 in assay [8] is > 64 µg/mL.

For `Cc1ccc2c(c1)c1c(n2CCCNCc2ccc(F)cc2)CCCC1`, the MIC80 in [1] was 16 µg/mL (≈ 45.7 µM); in assay [2], 64 µg/mL (≈ 183 µM); in assay [3], 32 µg/mL (≈ 91.3 µM); in [4], 8 µg/mL (≈ 22.8 µM); in assay [6] it was 32 µg/mL (≈ 91.3 µM); in assay [7], 8 µg/mL (≈ 22.8 µM). Also, the MIC80 in assay [8] came out at 8 µg/mL (≈ 22.8 µM).

Regarding `Cc1ccc2c(c1)c1c(n2CCCNC2CCCCC2)CCCC1`, the MIC80 in assay [2] is > 64 µg/mL; in [3], > 64 µg/mL; in [4], > 64 µg/mL; in assay [5] it was 4 µg/mL (≈ 12.3 µM).

Take `Cc1ccc2c(c1)c1c(n2CC(O)CNCc2cccnc2)CCCC1` (stereo not drawn): the MIC80 was > 64 µg/mL in assay [2], 64 µg/mL (≈ 183 µM) in [3], 64 µg/mL (≈ 183 µM) in assay [4] and 16 µg/mL (≈ 45.8 µM) in assay [5].

Turning to `OC(Cn1cncn1)(Cn1cncn1)c1ccc(F)cc1F` [FLUCONAZOLE], the MIC80 in [1] was 4 µg/mL (≈ 13.1 µM); in [2], 0.5 µg/mL (≈ 1.63 µM); in assay [3], > 64 µg/mL; in [4] it was 1 µg/mL (≈ 3.27 µM); in assay [5] it was 1 µg/mL (≈ 3.27 µM); in assay [6] it was 4 µg/mL (≈ 13.1 µM). In addition, the MIC80 in assay [7] was found to be 1 µg/mL (≈ 3.27 µM); in [8], 2 µg/mL (≈ 6.53 µM).

On to `Cc1ccc2c(c1)c1c(n2CCCNCc2cccc(F)c2)CCCC1`, for which the MIC80 was > 64 µg/mL in assay [1]; > 64 µg/mL in [2]; > 64 µg/mL in assay [3]; 64 µg/mL (≈ 183 µM) in assay [4]; 64 µg/mL (≈ 183 µM) in assay [6]; 64 µg/mL (≈ 183 µM) in assay [7]. Also, the MIC80 in assay [8] is > 64 µg/mL.

In the case of `Cc1ccc2c(c1)c1c(n2CCCNCc2ccccc2)CCCC1`, the MIC80 is 32 µg/mL (≈ 96.2 µM) in [1]; 16 µg/mL (≈ 48.1 µM) in assay [2]; 32 µg/mL (≈ 96.2 µM) in assay [3]; 1 µg/mL (≈ 3.01 µM) in [4]; 0.0156 µg/mL (≈ 0.0469 µM) in assay [5]; 16 µg/mL (≈ 48.1 µM) in assay [6]. Also, the MIC80 came out at 4 µg/mL (≈ 12 µM) in assay [7] and 32 µg/mL (≈ 96.2 µM) in assay [8].

For the molecule `Cc1ccc2c(c1)c1c(n2CCCNCc2ccccc2Cl)CCCC1`, the MIC80 in assay [1], in [2], in [3], in assay [4], in [6] and in assay [7] was > 64 µg/mL in each case. The MIC80 in assay [8] was > 64 µg/mL.

`Cc1ccc2c(c1)c1c(n2CCCNCc2cccnc2)CCCC1`: the MIC80 in [1] turned out to be 16 µg/mL (≈ 48 µM); in [2], 64 µg/mL (≈ 192 µM); in assay [3], 64 µg/mL (≈ 192 µM); in assay [4], 64 µg/mL (≈ 192 µM); in assay [5] it was 0.0625 µg/mL (≈ 0.187 µM); in [6], 64 µg/mL (≈ 192 µM). The MIC80 in [7] was found to be 4 µg/mL (≈ 12 µM); in [8], 16 µg/mL (≈ 48 µM).

On to `Cc1ccc2c(c1)c1c(n2CC(O)CNCc2ccccc2)CCCC1` (stereo not drawn), for which the MIC80 in assay [1] was determined as 64 µg/mL (≈ 184 µM); in [2], 16 µg/mL (≈ 45.9 µM); in assay [3], 64 µg/mL (≈ 184 µM); in assay [4], 4 µg/mL (≈ 11.5 µM); in [5] it was 16 µg/mL (≈ 45.9 µM); in [6], 64 µg/mL (≈ 184 µM). Besides, the results for the MIC80 in assay [7] and in assay [8] were 16 µg/mL (≈ 45.9 µM) and 64 µg/mL (≈ 184 µM), respectively.

With `CCOC(=O)c1ccc2c(c1)c1c(n2CCCNCc2ccccc2)CCCC1`, the MIC80 in assay [1], in assay [2], in assay [3], in assay [4], in assay [6] and in assay [8] was > 64 µg/mL throughout.

These data come from ChEMBL document CHEMBL3132778, “Structureactivity relationships of tetrahydrocarbazole derivatives as antifungal lead compounds” (Medchemcomm, 2013).
